The values that follow come from patent publication US5968910A, “Compositions containing two or three inhibitors of different HIV reverse transcriptases” (priority 1994, dated 1999).

The structures appear in SMILES notation. pIC50: −log10 of the molar value. Values after ≈ are worked out from the molar mass of the structure shown. Where two headings read alike, the source gives them in different places.

The target of assay [1] is HIV-1 RT (WT) (Human immunodeficiency virus type 1 group M subtype B, UniProt P03366). The assay is described as follows: biochemical. Conditions: IC50, anti-HIV-1 RT (WT) activity. The gist of the method:
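Recombinant HIV-1 RT incubated 30 min at 37° C with poly(C).oligo(dG) (0.1 mM) and [³H]dGTP (2.95 μM) in Tris pH 7.8 with 5 mM MgCl2, 150 mM KCl, DTT, glutathione, Triton X-100; 5-fold compound dilutions. Acid-insoluble radioactivity counted after TCA/pyrophosphate precipitation.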

Assay [2] concerns HIV-1(IIIB) (WT). The assay is described as follows: microbe, parasite or virus in culture. It counts as cell-based. The conditions noted are these: Human immunodeficiency virus 1, IIIB, CCRF-CEM. The gist of the method:
(§1)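 Syncytium formation read out after 4 days at 37° C. Cultures: CEM cells, 250,000/ml, infected at 100 50% cell culture infective doses/ml and added to compound dilutions.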

Assay [3] relates to HIV-1/TSAO-m^3 T (138-Lys). Description: Sensitivity of mutant HIV-1 strain in CEM cell cultures. Conditions: CEM cells, Table 1. It counts as cell-based. A digest of the protocol:
as §1

In assay [4] the test system is HIV-1/III(0.1) 103-Asn. Described as above. It counts as cell-based. The conditions noted are these: Table 5. A digest of the protocol:
as §1

Assay [5] concerns HIV-1/Nev (106-Ala). The description is as above. It counts as cell-based. Conditions: CEM cells, Table 1. A digest of the protocol: as §1
Assay [6] deals with HIV-1/TIBO R82913 (103-Asn). Described as above. It counts as cell-based. The conditions noted are these: CEM cells, Table 1. A digest of the protocol: as §1
Assay [7] deals with HIV-1/I(0.1) 103-Asn. The assay is described as above. It counts as cell-based. The conditions noted are these: Table 5. The gist of the method:
as §1

The test system of assay [8] is HIV-1/II(0.1) 100-Ile. The description is as above. It counts as cell-based. The conditions noted are these: Table 5. The gist of the method: as §1
For assay [9], the system named is HIV-1/IV(0.1) 103-Thr. Described as above. The conditions noted are these: Table 5. It counts as cell-based. A digest of the protocol: as §1
For assay [10], the system named is HIV-1/V(0.5) 103-Asn. Described as above. It counts as cell-based. A digest of the protocol: as §1
The subject of assay [11] is HIV-1/V(0.1) 101-Ile + 141-Glu. Described as above. The conditions noted are these: Table 5. It counts as cell-based. The gist of the method:
as §1

For assay [12], the system named is HIV-1/TIBO R82150 (100-Ile). The description is as above. The conditions noted are these: CEM cells, Table 1. It counts as cell-based. The gist of the method:
as §1

Assay [13] deals with HIV-1/Pyr (181-Cys). Described as above. It counts as cell-based. Conditions: CEM cells, Table 1. The gist of the method: as §1

In the case of `Cc1cn([C@@H]2O[C@H](CO[Si](C)(C)C(C)(C)C)[C@@]3(OS(=O)(=O)C=C3N)[C@H]2O[Si](C)(C)C(C)(C)C)c(=O)n(C)c1=O` [TSAO-m^3 T], in assay [1], the pIC50 is 5.34. Also, the EC50 came to 0.03 µg/mL (≈ 0.0497 µM) in assay [2] (CEM cells, Table 1, read-out: 50% Effective Concentration); 0.03 µg/mL (≈ 0.0497 µM) in assay [2] (HIV-1 (III8), Table 5, read-out: EC50); 0.20 µg/mL (≈ 0.331 µM) in assay [4]; 0.22 µg/mL (≈ 0.364 µM) in assay [7]; 0.37 µg/mL (≈ 0.613 µM) in [8]; 0.30 µg/mL (≈ 0.497 µM) in [9]. For the same molecule, the EC50 in assay [10] (Table 5) was found to be 0.30 µg/mL (≈ 0.497 µM); in [11], 0.06 µg/mL (≈ 0.0994 µM). For the same molecule, the “50% Effective Concentration” value in [3] was above 50 µg/mL; in assay [5], above 50 µg/mL; in assay [6], 0.15 µg/mL; in assay [12] it was 0.05 µg/mL; in assay [13], 3.0 µg/mL. Also, the “fold more inhibitory to HIV-1/III(0.1) than to HIV-1/V(0.5)” value in assay [10] (both RT/103-Asn mutants) is given as “equally inhibitory to both virus mutants”.
